How the values were obtained:
HepAD38 cells = HepAD38 cells cytotoxicity assay (CellTiter-Glo Luminescent Cell Viability Assay); type: cell-based; conditions: 7 days total treatment, read-out: Cell tox (EC50, ηM)
Description: (§1) Example 36 HepAD38 Cells—HBsAg ELISA and Cytotoxicity Assays
(§2) HepAD38 cells are maintained in collagen-coated flasks in cell culture medium (DMEM/F12 containing 10% fetal bovine serum (FBS), GlutaMax-1, penicillin/streptomycin, non-essential amino acids, Na pyruvate, 250 μg/mL geneticin, and 1 μg/mL doxycycline). Compound solutions are prepared in DMSO and compound are serially diluted for final concentrations of 4000, 1000, 250, 62.5, 15.6, 3.91, 0.977, 0.244, 0.061, and 0.015 ηM. The cells are then trypsinized and the cells are plate at 10,000 cells per well. Incubate plates are incubated at 37° C., 5% CO2 for 4 days. Media is replaced with new media with compound treatment. The plates are then incubated at 37° C., 5% CO2 for an additional 3 days for a total treatment time of 7 days. For antiviral response, HBsAg was measured using the HBsAg ELISA kit (International Immuno-diagnostics) with instructions provided. 100 uL of cell media samples was used for ELISA. The absorbance was read on the Spectramax® 384 plate reader (Molecular Devices) at 450 nm. For cell toxicity, the cells were used for CellTiter-Glo® Luminescent Cell Viability Assay reagent (Promega). The luminescence was read on Envision Multilabel Reader (Perkin Elmer). The data was analyzed compared to the DMSO control. % inhibition=(1−(unknown/high control))*100
(§3) The average % inhibition values from duplicate assay plates are then plotted in GraphPad Prism to determine one IC value: Four-parameter logistic curve with equation Y=Bottom+(Top-Bottom)/(1+10^((Log IC50−X)*HillSlope)) pIC50=[…]

HBs antigens (HBsAg) = experiment: HepAD38 cells HBsAg ELISA; type: cell-based, Hepatitis B virus; conditions: read-out: HepAD38, HBsAg (EC50), 7 days total treatment, HBsAg ELISA of cell media
Description: as §1, §2, §3

[1] = HepAD38 cells cytotoxicity assay (CellTiter-Glo Luminescent Cell Viability Assay); type: cell-based; conditions: human, 7 days total treatment, read-out: Cell tox (EC50, ηM)
Description: as §1, §2, §3

SMILES	EC50 (HepAD38 cells) [nM]	EC50 (HBs antigens (HBsAg)) [nM]	EC50 at 7 days [1] [nM]
CC(C)(C)C1Cc2cc(OCC3CC3)c(Cl)nc2-c2cc(=O)c(C(=O)O)cn21 (single isomer, unassigned; isomer 1) [Example 30-A, 6-(tert-Butyl)-2-chloro-3-(cyclopropylmethoxy)-10-oxo-6,10-dihydro-5H-pyrido[1,2-h][1,7]naphthyridine-9-carboxylic acid (isomer 1)]	> 4000	< 1	
COCCCOc1cc2c(nc1C1CC1)-c1cc(=O)c(C(=O)O)cn1C(C)(C(C)C)C2 (single isomer, unassigned; isomer-2) [Example 29, 2-Cyclopropyl-6-isopropyl-3-(3-methoxypropoxy)-6-methyl-10-oxo-5,10-dihydro-6H-pyrido[1,2-h][1,7]naphthyridine-9-carboxylic acid-Isomer-2]	> 4000	10 to 100	
COc1cc2c(nc1OC)-c1cc(=O)c(C(=O)O)cn1C1(CCC1)C2 [Example 32, 2′,3′-Dimethoxy-10′-oxo-5′,10′-dihydrospiro[cyclobutane-1,6′-pyrido[1,2-h][1,7]naphthyridine]-9′-carboxylic acid]		10 to 100	> 4000
COCCCOc1cc2c(nc1C1CC1)-c1cc(=O)c(C(=O)O)cn1[C@H]1[C@@H]2CCC1(C)C [Example 3, (4bR,7aS)-2-Cyclopropyl-3-(3-methoxypropoxy)-7,7-dimethyl-11-oxo-4b,5,6,7,7a,11-hexahydrocyclopenta[f]pyrido[1,2-h][1,7]naphthyridine-10-carboxylic acid]		< 1	> 4000
CC(C)C1(C)Cc2cc(OCC3CC3)c(Cl)nc2-c2cc(=O)c(C(=O)O)cn21 (single isomer, unassigned; isomer-2) [Example 27, (2-Chloro-3-(cyclopropylmethoxy)-6-isopropyl-6-methyl-10-oxo-5,10-dihydro-6H-pyrido[1,2-h][1,7]naphthyridine-9-carboxylic acid-Isomer-2]	> 4000	> 100	

From US12221444B2, “5,6,7,7a-tetrahydrocyclopenta[f]pyrido[1,2-h][1,7]naphthyridin-11(4bH)-one compounds and methods of use” (GLAXOSMITHKLINE INTELLECTUAL, priority 2017, dated 2025)
